pIC50, pKd: −log10 of the molar value. Where “and” joins values, the source holds several entries; their conditions need not be identical. Equal values may be shown once. Read-outs that look alike come from different tables or passages of the source.
What was measured:
HeLa Lysate [1] = test: Cell free translation assay, hEPO mRNA carrying the cap analogs; format: biochemical; conditions: 5-methoxy uridine modRNA
Description: In FIG. 5A, “mod mRNA” refers to a modified mRNA comprising N1-methyl pseudouridine, which replaces each uridine in the RNA sequence. FIG. 5 B presents the results of a cell free translation assay using mRNAs carrying different cap analogs, normalized to capping and concentration of each capped mRNA (see also Table 13).
(§1) The in vitro translation assay was conducted with the HeLa 1-step coupled IVT kit (ThermoFisher Scientific, Waltham, Mass.) according to the manufacturer's instructions to assess performance of new cap analogs as free compounds or as an integral part of capped mRNA. Cap analogs with affinity to eIF4E protein may reduce protein synthesis rate in cell-free translation. Further, RNAs containing such cap analogs (“Cap-modRNA”) show different potency of protein synthesis in cell-free translation.
(§2) Cell free translation assays were also conducted using modRNAs comprises 5-methoxy uridine, which replaces each uridine in the RNA sequence, except otherwise specified. The results are shown in FIGS. 5A-5B and 6A-6B, and Tables 12 and 13. Table 12 discloses the measured mCitrine levels after 3 hours of a cell-free translation assay.
Table 13 discloses the hEPO levels after 3 hours of a cell-free translation assay.

eIF4E [2] = target: T1, eIF4E (Homo sapiens, UniProt P06730); test: Binding affinities to eIF4E using surface plasmon resonance (SPR)
T1 sequence (P06730 32-217): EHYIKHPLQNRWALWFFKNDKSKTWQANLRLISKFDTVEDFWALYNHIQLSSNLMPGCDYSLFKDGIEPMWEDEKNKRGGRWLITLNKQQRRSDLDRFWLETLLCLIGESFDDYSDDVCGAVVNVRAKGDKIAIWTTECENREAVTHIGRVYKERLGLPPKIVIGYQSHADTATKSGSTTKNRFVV
Description: (§3) A sensor chip SA (GE Healthcare) is docked into a Biacore 3000 instrument.
(§4) Compound concentration series are injected over the immobilized protein serially in increasing concentration. Interaction models are fitted globally to the experimental traces, enabling determination of Kd or KD (binding affinity; unit: M) and possibly kon (on-rate, calculated from the association phase; unit: M^−1s^−1) and koff (off-rate, calculated from the dissociation phase; unit: s^−1).
(§5) A sensor chip (SAD5001 or SA) was docked into a Biacore 3000 instrument, washed with 50 mM NaOH, 1M NaCl. Protein eIF4E was diluted in running buffer (50 mM HEPES, 150 mM KCl, 10 mM MgCl2, 2 mM TCEP) to ˜1 μM. The diluted protein solution was injected for 300-600 seconds. Typical capture levels were 5000-6000 RU.
(§6) Test compounds were solubilized in ddH2O or DMSO to 10 mM. 100 μM stocks were prepared by 100-fold dilution in running buffer (50 mM HEPES, 150 mM KCl, 10 mM MgCl2). Assay was run with or without 1% DMSO.
(§7) Data were analyzed in GeneData. Curve fit was accepted or rejected by looking at the resulting sensorgrams and steady state fits.
(§8) Assay has been validated using running buffer with and without DMSO. […] Further, newly captured protein stabilizes slowly, leading to negative responses during the dissociation phase for compounds injected over newly captured protein.

eIF4E [3] = target: T1, eIF4E; test: biochemical
Description: as §3, §4, §5, §6, §7, §8

HeLa Lysate [4] = test: Cell free translation assay, mCitrine mRNA carrying the cap analogs; format: biochemical; conditions: 5-methoxy uridine modRNA
Description: as §1
The modified RNAs (“modRNAs”) of eGFP and mCitrine-degron, harboring chemical modifications on either the CAP structures, selected ribose units and/or the bases, were diluted in sterile nuclease-free water to a final amount of 500 ng in 5 uL. This volume was added to 20 uL of freshly prepared HeLa Lysate. The in vitro translation reaction was done in a standard 96-well round bottom plate (Corning, Corning, N.Y.), covered with an self-adhesive fluorescence-compatible seal (BioRad, Hercules, Calif.) at 30° C. inside the plate reader Cytation 3 (BioTek, Winooski, Vt.).
The fluorescent signal per reaction increased over time and is considered proportional to the occurring protein synthesis. Each cell-free translation reaction was monitored for 120-180 min with the following settings: eGFP protein—ex. 485 nm, em. […] 545, gain 70 or 80. The height of the reading head was set to 1 mm above the plate and a reading speed of one per sample every 17 seconds. The results of modRNAs with various caps are illustrated in FIGS. 3A-3B.
as §2

T7 RNA Polymerase = T7 RNA Polymerase (Escherichia phage T7, UniProt P00573); test: Cotranscriptional capping of hEPO mRNA by in vitro transcription (capping fraction); format: biochemical; conditions: hEPO mRNA used in the in vivo assay
T7 RNA Polymerase, sequence (P00573 whole entry): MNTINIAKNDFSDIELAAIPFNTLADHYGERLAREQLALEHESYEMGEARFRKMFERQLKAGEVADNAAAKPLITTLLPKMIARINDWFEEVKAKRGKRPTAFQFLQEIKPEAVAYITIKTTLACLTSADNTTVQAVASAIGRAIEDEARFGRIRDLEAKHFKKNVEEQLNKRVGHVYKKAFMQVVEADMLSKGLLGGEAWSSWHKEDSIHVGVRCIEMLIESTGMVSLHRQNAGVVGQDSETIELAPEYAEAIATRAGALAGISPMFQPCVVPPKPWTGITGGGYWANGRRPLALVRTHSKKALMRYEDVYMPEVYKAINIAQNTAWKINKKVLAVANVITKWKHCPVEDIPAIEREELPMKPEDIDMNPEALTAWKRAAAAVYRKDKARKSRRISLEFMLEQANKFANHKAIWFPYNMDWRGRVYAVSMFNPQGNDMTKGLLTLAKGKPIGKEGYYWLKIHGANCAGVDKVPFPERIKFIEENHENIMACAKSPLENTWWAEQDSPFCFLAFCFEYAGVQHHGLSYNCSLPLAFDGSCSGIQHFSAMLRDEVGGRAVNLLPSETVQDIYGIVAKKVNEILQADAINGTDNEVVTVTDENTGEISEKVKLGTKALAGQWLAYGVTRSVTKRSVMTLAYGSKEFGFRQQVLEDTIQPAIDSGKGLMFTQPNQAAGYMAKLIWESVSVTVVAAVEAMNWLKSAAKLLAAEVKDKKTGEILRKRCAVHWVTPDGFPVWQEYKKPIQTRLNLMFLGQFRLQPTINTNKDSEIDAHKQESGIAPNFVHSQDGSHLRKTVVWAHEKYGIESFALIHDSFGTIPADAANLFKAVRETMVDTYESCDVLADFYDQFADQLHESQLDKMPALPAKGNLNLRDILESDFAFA
Description: The target mRNAs are prepared following IVT Reaction Protocol—Cotranscriptional capping described herein.
Ratio of A:U:C:G varies between 1:1:1:0.1 and 1:1:1:1, with the cap added in 10-fold excess to G. • 2. T7 RNA polymerase is added after other components except for water. • 3. Water is added for a total reaction volume of 100 uL. • 4. The mixture is mixed well and spun down in a benchtop centrifuge for 1 minute. • 5. The cocktail is incubated at 37 degrees for 4 hours. • 6. 2.5 uL of RNase free DNase I is added. • 7. The cocktail is incubated at 37° C. for 45 minutes.
As described in this Example, each of A, U, C, and G includes both unmodified and modified NTP. After the IVT reaction is complete, the mixture is cleaned using membrane purification (MegaClear or equivalent), and Oligo dT. Sample concentration is determined using a spectrophotometer, and degradation is quantitated using a bioanalyzer.

eIF4E [5] = target: T1, eIF4E
Description: as §3, §4, §5, §6, §7, §8

CD-1 mice = test: In vivo expression assay, hEPO mRNA in MC3-based LNP; conditions: iv bolus 0.05 mg/kg, 6 h after injection, 008-7 Cap0-like, others Cap1-like
Description: mRNAs encoding hEPO were synthesized according to the method described in Example 2 above, co-transcriptionally incorporating cap analogs of the disclosure. […] A MC3-based lipid nanoparticle (LNP) formulation of the synthesized mRNA was produced, and was intravenously administered to CD-1 mice (n=3) at a bolus dose of 0.05 mg/kg. The level of hEPO was tested at 6 h, 24 h, or 48 h after injection.

[6] = tested on: human primary hepatocytes; test: Cell-based expression in human primary hepatocytes of mRNAs carrying the cap analogs; conditions: mRNA carrying the cap, 5-methoxy uridine; 008-7 Cap0-like, all other caps Cap1-like
HeLa Lysate [7] = test: Cap competition assay in kinetic cell free in vitro translation (free cap analogs); format: biochemical; conditions: free cap analog 0-100 uM against Cap1-tipped eGFP modRNA, fluorescence plateau
Description: as §1
For competition assays, the total volume of the cell-free translation reaction was increased to 27.8 uL by addition of either water or diluted free CAP analogs in water. The stock concentration of the free CAP analogs was 1 mM. With two-fold dilutions in water, the concentration was reduced sequentially. […] The CAP analogs used in this study were either commercial products serving as reference material (TriLink, San Diego, Calif.) or compounds disclosed herein. It is hypothesized that the small molecule cap analogs interfere with the assembly of the “closed loop” in a Kd-dependent fashion.
After the fluorescent signal in cell-free translation reaction reached a stable plateau, absolute values thereof were transferred to a statistical analysis program (GraphPad Software, La Jolla, Calif.) and curve fitting or IC50 calculations were derived with settings according to the instructions of the manufacturer.
The results from the cap competition assays are illustrated in FIGS. 1A-1C and 2A-2D. In this study, each of the modRNAs used comprises 1-methyl-pseudouridine, which replaces each uridine in the RNA sequence and 5-methyl cytidine, which replaces each cytidine in the RNA sequence. Further, Table 11 includes the IC50 values of certain compounds of the disclosure.

[8] = residence time as listed in Table 12
[9] = residence time as listed in Table 13

Structure (SMILES) | CFT (norm to conc. & capping & cap1), hEPO levels after 3 hours of a cell-free translation assay (HeLa Lysate [1]) | pKd (eIF4E [3]) | Ave norm (mCitrine levels after 3 hours of a cell-free translation assay) (HeLa Lysate [4]) | capping %/100 (T7 RNA Polymerase) | τ (eIF4E [2]; [8]) [s] | τ (eIF4E [2]; [9]) [s] | koff (eIF4E [5]) [s⁻¹] | pIC50 (HeLa Lysate [7]) | also measured
CO[C@@H]1[C@H](O)[C@@H](COP(=O)(O)OP(=O)([S-])OP(=O)(O)OC[C@H]2O[C@@H](n3cnc4c(=O)[nH]c(N)nc43)[C@H](O)[C@@H]2O)O[C@H]1n1c[n+](C)c2c(=O)[nH]c(N)nc21 (single isomer, unassigned) [Compound 005-30 (D2)] | 1.66 (D2) | 5.96 | 0.84 (D2) | 0.71 (D2) %/100 |  |  |  |  | τ (s) (eIF4E [2]; [8]): 10 (D2) s; τ (s) (eIF4E [2]; [9]): 10.4 (D2) s
COCCO[C@@H]1[C@H](O)[C@@H](COP(=O)(O)OP(=O)([S-])OP(=O)(O)OC[C@H]2O[C@@H](n3cnc4c(=O)[nH]c(N)nc43)[C@H](O)[C@@H]2O)O[C@H]1n1c[n+](CCOc2ccc(Cl)cc2)c2c(=O)[nH]c(N)nc21 (stereo partly drawn) [Compound 005-34] | 2.71 | 8.00 | 2.51 | 0.94 %/100 | 50 | 50 | 0.02 |  | 
CO[C@H]1[C@@H](O)[C@H](n2c[n+](C)c3c(=O)[nH]c(N)nc32)O[C@@H]1COP(=O)(O)OP(=O)(O)OP(=O)(O)OC[C@H]1O[C@@H](n2cnc3c(=O)[nH]c(N)nc32)[C@H](O)[C@@H]1O [ARCA, m7(3′-Om)GpppG, reference compound] | 1.93 |  |  | 0.86 %/100 |  | 0.6 | 1.67 |  | pKd (eIF4E [5]): 5.52 to 5.70; in vivo hEPO normalized to capping and Cap1 (CD-1 mice): 0.70; h-primHeps norm to Capping and Cap1 [6]: 1.52
C[n+]1cn(C2CN(Cc3ccccc3)CC(COP(=O)(O)OP(=O)([S-])OP(=O)(O)OC[C@H]3O[C@@H](n4cnc5c(=O)[nH]c(N)nc54)[C@H](O)[C@@H]3O)O2)c2nc(N)[nH]c(=O)c21 (stereo partly drawn) [Compound 006-46] |  |  | 0.77 |  | 3.4 |  |  |  | 
CN(C)CCN1CC(COP(=O)(O)OP(=O)([O-])OP(=O)(O)OC[C@H]2O[C@@H](n3cnc4c(=O)[nH]c(N)nc43)[C@H](O)[C@@H]2O)OC(n2c[n+](C)c3c(=O)[nH]c(N)nc32)C1 (stereo partly drawn) [Compound 006-44] |  |  | 0.31 |  | 0.8 |  |  |  | 
CN1CC(COP(=O)(O)OP(=O)([O-])OP(=O)(O)OC[C@H]2O[C@@H](n3cnc4c(=O)[nH]c(N)nc43)[C@H](O)[C@@H]2O)OC(n2c[n+](CCOc3ccc(Cl)cc3)c3c(=O)[nH]c(N)nc32)C1 (stereo partly drawn) [Compound 006-45] | 0.48 |  | 0.74 | 0.95 %/100 | 11.6 | 11.6 |  |  | 
Nc1nc2c(ncn2[C@@H]2O[C@H](COP(=O)(O)OP(=O)([O-])OP(=O)(O)OC[C@H]3O[C@@H](n4c[n+](CCOc5ccc(Cl)cc5)c5c(=O)[nH]c(N)nc54)[C@@H](O)[C@@H]3O)[C@@H](O)[C@H]2O)c(=O)[nH]1 [Compound 005-35] | 1.02 |  |  | 1 %/100 |  | 9.1 |  |  | 
C[n+]1cn([C@@H]2O[C@H](COP(=O)([O-])OP(=O)([O-])OP(=O)(O)OC[C@H]3O[C@@H](n4c[n+](C)c5c(=O)[nH]c(N)nc54)[C@H](O)[C@@H]3O)[C@@H](O)[C@H]2O)c2nc(N)[nH]c(=O)c21 [Compound 005-10] | 0.83 | 5.57 and 5.52 |  | 0.91 %/100 |  | 3.8 | 0.26 | 4.85 | 
BP(=O)(OP(=O)([O-])OC[C@H]1O[C@@H](n2c[n+](C)c3c(=O)[nH]c(N)nc32)[C@H](O)[C@@H]1O)OP(=O)([O-])OC[C@H]1O[C@@H](n2c[n+](C)c3c(=O)[nH]c(N)nc32)[C@H](O)[C@@H]1O [Compound 005-4] |  | 6.00 to 6.15 and 6.00 | 0.24 |  |  |  |  | 5.30 | τ (eIF4E [2]): 4.17 s and 4.2 s; koff (eIF4E [2]; read-out: koff (s^−1)): 0.24 s⁻¹
COc1ccc(CN2CC(COP(=O)([O-])OP(=O)(O)OP(=O)(O)OCC3OC(n4cnc5c(=O)[nH]c(N)nc54)C(O)C3O)OC(n3c[n+](C)c4c(=O)[nH]c(N)nc43)C2)cc1 (stereo not drawn) [Compound 006-26] |  |  | 0.50 |  | 3.3 |  |  |  | 
CO[C@@H]1[C@H](O)[C@@H](COP(=O)(O)OP(=O)([O-])OP(=O)(O)OC[C@H]2O[C@@H](n3cnc4c(=O)[nH]c(N)nc43)[C@H](O)[C@@H]2O)O[C@H]1n1c[n+](C)c2c(=O)[nH]c(N)nc21 [Compound 005-14] |  | 5.19 and 5.40 |  |  |  |  | 1.7 | 4.32 | 
CO[C@@H]1[C@H](O)[C@@H](COP(=O)(O)OP(=O)([S-])OP(=O)(O)OC[C@H]2O[C@@H](n3cnc4c(=O)[nH]c(N)nc43)[C@H](O)[C@@H]2O)O[C@H]1n1c[n+](C)c2c(=O)[nH]c(N)nc21 (single isomer, unassigned) [Compound 005-30 (D1)] | 0.79 (D1) | 6.15 | 0.44 (D1); | 0.65 (D1) %/100 |  |  |  |  | τ (s) (eIF4E [2]; [8]): 15 (D1); s; τ (s) (eIF4E [2]; [9]): 14.9 (D1) s
C[n+]1cn([C@H]2CN(CCO)C[C@@H](COP(=O)([O-])OP(=O)(O)OP(=O)(O)OC[C@H]3O[C@@H](n4cnc5c(=O)[nH]c(N)nc54)[C@H](O)[C@@H]3O)O2)c2nc(N)[nH]c(=O)c21 [Compound 006-3] |  | 5.05 to 5.10 and 5.05 |  |  |  |  | 0.6 | 4.48 | 

Reference: patent publication US20190225644A1, “MRNA CAP ANALOGS AND METHODS OF MRNA CAPPING” (ModernaTX, Inc., priority 2015, published 2019)
